The assay has as its target purified human MMP-12 enzyme (Homo sapiens, UniProt P39900). The experiment in a line: MMP-12 FRET assay. The settings on record: substrate 20 μM, room temperature. In kind it is biochemical. Put shortly: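 Enzyme pre-incubated 30 min at room temperature with compound in 50 mM HEPES pH 7.4, 100 mM NaCl, 5 mM CaCl2, 0.005% Brij-35, 10% DMSO final. Reaction started with 20 μM MCA-Pro-Leu-Gly-Leu-Dpa(DNP)-Ala-Arg, and initial cleavage rate read over 30 min (λex 325, λem 395 nm). IC50 from slope-factor inhibition fit.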
purified human MMP-12 enzyme, sequence (P39900 106-470): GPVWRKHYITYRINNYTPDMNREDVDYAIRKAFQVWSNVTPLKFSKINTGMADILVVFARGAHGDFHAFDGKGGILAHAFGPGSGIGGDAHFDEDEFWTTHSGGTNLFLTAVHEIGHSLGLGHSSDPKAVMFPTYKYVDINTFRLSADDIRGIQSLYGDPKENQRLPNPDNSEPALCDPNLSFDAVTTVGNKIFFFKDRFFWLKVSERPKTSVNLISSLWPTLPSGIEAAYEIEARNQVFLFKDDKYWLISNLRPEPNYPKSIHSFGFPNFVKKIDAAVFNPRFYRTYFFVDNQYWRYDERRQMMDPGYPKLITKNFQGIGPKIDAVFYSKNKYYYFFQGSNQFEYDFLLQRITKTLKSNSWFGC
In the case of `Cc1nnc(-c2ccc3oc4cc(S(=O)(=O)N[C@H](C(=O)O)C(C)C)ccc4c3c2)s1` [Compound 146, (S)-3-methyl-2-(8-(5-methyl-1,3,4-thiadiazol-2-yl)dibenzo[b,d]furan-3-sulfonamido)butanoic acid], the IC50 was 1.7 nM.
Then `CCc1ccc(-c2ccc3oc4cc(S(=O)(=O)N[C@H](C(=O)O)C(C)C)ccc4c3c2)s1` [Compound 196, (S)-2-(8-(5-ethylthiophen-2-yl)dibenzo[b,d]furan-3-sulfonamido)-3-methylbutanoic acid], with under 1.5 nM; and `CC(C)[C@H](NS(=O)(=O)c1ccc2c(c1)oc1ccc(-c3cnn(C)c3)cc12)C(=O)O` [Compound 18, (S)-3-methyl-2-(8-(1-methyl-1H-pyrazol-4-yl)dibenzo[b,d]furan-3-sulfonamido)butanoic acid], with under 1.5 nM.
The same measure for `CC(C)[C@H](NS(=O)(=O)c1ccc2c(c1)sc1ccc(-c3cccnc3)cc12)C(=O)O` [Compound 11, (S)-3-methyl-2-(8-(pyridin-3-yl)dibenzo[b,d]thiophene-3-sulfonamido)butanoic acid]: 15.6 nM; for `CC(C)[C@H](NS(=O)(=O)c1ccc2c(c1)sc1cc(-c3ccoc3)ccc12)C(=O)O` [Compound 60, (S)-2-(7-(furan-3-yl)dibenzo[b,d]thiophene-3-sulfonamido)-3-methylbutanoic acid]: under 1.5 nM; for `CC(C)[C@H](NS(=O)(=O)c1ccc2c(c1)oc1cc(-c3noc(C4CC4)n3)ccc12)C(=O)O` [Compound 187, (S)-2-(7-(5-cyclopropyl-1,2,4-oxadiazol-3-yl)dibenzo[b,d]furan-3-sulfonamido)-3-methylbutanoic acid]: 5.5 nM.
The same measure for `CCc1ccc(-c2ccc3c(c2)oc2cc(S(=O)(=O)N[C@H](C(=O)O)C(C)C)ccc23)s1` [Compound 229, (S)-2-(7-(5-ethylthiophen-2-yl)dibenzo[b,d]furan-3-sulfonamido)-3-methylbutanoic acid]: under 1.5 nM; for `Cc1cc(-c2ccc3oc4cc(S(=O)(=O)N[C@H](C(=O)O)C(C)C)ccc4c3c2)c(C)s1` [Compound 89, (S)-2-(8-(2,5-dimethylthiophen-3-yl)dibenzo[b,d]furan-3-sulfonamido)-3-methylbutanoic acid]: 2.5 nM; for `CC(C)(C)c1nc(-c2ccc3c(c2)oc2ccc(S(=O)(=O)N[C@H](Cc4ccccc4)C(=O)O)cc23)no1` [Compound 275, (R)-2-(7-(5-tert-butyl-1,2,4-oxadiazol-3-yl)dibenzo[b,d]furan-2-sulfonamido)-3-phenylpropanoic acid]: 4.1 nM.
With `CC(C)[C@H](NS(=O)(=O)c1ccc2c(c1)sc1cc(-c3ccc(Cl)s3)ccc12)C(=O)O` [Compound 304, (S)-2-(7-(5-chlorothiophen-2-yl)dibenzo[b,d]thiophene-3-sulfonamido)-3-methylbutanoic acid], it took 1.5 nM to reach half-maximal inhibition (IC50).
The molecule `CC(C)[C@@H](NS(=O)(=O)c1ccc2c(c1)sc1cc(-c3ccco3)ccc12)C(=O)O` [Compound 129, (R)-2-(7-(furan-2-yl)dibenzo[b,d]thiophene-3-sulfonamido)-3-methylbutanoic acid] displayed an IC50 of under 1.5 nM.
The molecule `CC(C)[C@H](NS(=O)(=O)c1ccc2c(c1)oc1ccc(-c3noc(Cc4ccccc4)n3)cc12)C(=O)O` [Compound 266, (S)-2-(8-(5-benzyl-1,2,4-oxadiazol-3-yl)dibenzo[b,d]furan-3-sulfonamido)-3-methylbutanoic acid] gave a concentration for half-maximal inhibition (IC50) of 4 nM.
In turn, `CC(C)[C@@H](NS(=O)(=O)c1ccc2oc3cc(-c4nccs4)ccc3c2c1)C(=O)O` [Compound 291, (R)-3-methyl-2-(7-(thiazol-2-yl)dibenzo[b,d]furan-2-sulfonamido)butanoic acid] gave a concentration for half-maximal inhibition (IC50) of 5.2 nM.
The same measure for `CC(C)[C@@H](NS(=O)(=O)c1ccc2oc3cc(-c4noc(C(F)(F)F)n4)ccc3c2c1)C(=O)O` [Compound 141, (R)-3-methyl-2-(7-(5-(trifluoromethyl)-1,2,4-oxadiazol-3-yl)dibenzo[b,d]furan-2-sulfonamido)butanoic acid]: 14 nM.
The same measure for `CC(C)c1nc(-c2ccc3c(c2)oc2ccc(S(=O)(=O)N[C@@H](C(=O)O)C(C)C)cc23)no1` [Compound 138, (R)-2-(7-(5-isopropyl-1,2,4-oxadiazol-3-yl)dibenzo[b,d]furan-2-sulfonamido)-3-methylbutanoic acid]: 2.8 nM; for `CC(C)[C@H](NS(=O)(=O)c1ccc2c(c1)sc1ccc(-c3cnn(C)c3)cc12)C(=O)O` [Compound 40, (S)-3-methyl-2-(8-(1-methyl-1H-pyrazol-4-yl)dibenzo[b,d]thiophene-3-sulfonamido)butanoic acid]: 2.6 nM; for `CC(C)[C@H](NS(=O)(=O)c1ccc2c(c1)oc1ccc(-c3ccc(-c4ccc(Cl)nc4)nc3)cc12)C(=O)O` [Compound 59, (S)-2-(8-(6′-chloro-2,3′-bipyridin-5-yl)dibenzo[b,d]furan-3-sulfonamido)-3-methylbutanoic acid]: under 1.5 nM.
The same measure for `CC(C)[C@H](NS(=O)(=O)c1ccc2c(c1)oc1ccc(-c3noc(-c4cccs4)n3)cc12)C(=O)O` [Compound 264, (S)-3-methyl-2-(8-(5-(thiophen-2-yl)-1,2,4-oxadiazol-3-yl)dibenzo[b,d]furan-3-sulfonamido)butanoic acid]: under 1.5 nM; for `CC(C)[C@@H](NS(=O)(=O)c1ccc2oc3cc(-c4cc5ccccc5n4C)ccc3c2c1)C(=O)O` [Compound 121, (R)-3-methyl-2-(7-(1-methyl-1H-indol-2-yl)dibenzo[b,d]furan-2-sulfonamido)butanoic acid]: 140 nM; for `C/C=C/c1ccc2oc3cc(S(=O)(=O)N[C@H](C(=O)O)C(C)C)ccc3c2c1` [Compound 66, (S,E)-3-methyl-2-(8-(prop-1-enyl)dibenzo[b,d]furan-3-sulfonamido)butanoic acid]: under 1.5 nM.
For `CC(C)(C)c1nc(-c2ccc3c(c2)oc2ccc(S(=O)(=O)N[C@@H](Cc4c[nH]c5ccccc45)C(=O)O)cc23)no1` [Compound 280], the half-inhibitory concentration (IC50) turned out to be 15 nM.
The same measure for `Cc1cscc1-c1ccc2sc3cc(S(=O)(=O)N[C@H](C(=O)O)C(C)C)ccc3c2c1` [Compound 24, (S)-3-methyl-2-(8-(4-methylthiophen-3-yl)dibenzo[b,d]thiophene-3-sulfonamido)butanoic acid]: 190 nM; for `CC(C)[C@@H](NS(=O)(=O)c1ccc2oc3cc(/C=C/C4CCCCC4)ccc3c2c1)C(=O)O` [Compound 104, (R,E)-2-(7-(2-cyclohexylvinyl)dibenzo[b,d]furan-2-sulfonamido)-3-methylbutanoic acid]: 59 nM; for `CC(C)Cn1cc(-c2ccc3oc4cc(S(=O)(=O)N[C@H](C(=O)O)C(C)C)ccc4c3c2)cn1` [Compound 159, (S)-2-(8-(1-isobutyl-1H-pyrazol-4-yl)dibenzo[b,d]furan-3-sulfonamido)-3-methylbutanoic acid]: 6.2 nM.
`CC(C)[C@@H](NS(=O)(=O)c1ccc2oc3cc(-c4ccc(-c5ccccc5)s4)ccc3c2c1)C(=O)O` [Compound 289, (R)-3-methyl-2-(7-(5-phenylthiophen-2-yl)dibenzo[b,d]furan-2-sulfonamido)butanoic acid] gave a 50% inhibitory concentration (IC50) of 9.1 nM.
In the case of `CC(C)[C@@H](NS(=O)(=O)c1ccc2oc3cc(-c4ccc(Br)s4)ccc3c2c1)C(=O)O` [Compound 144, (R)-2-(7-(5-bromothiophen-2-yl)dibenzo[b,d]furan-2-sulfonamido)-3-methylbutanoic acid], the IC50 worked out at 2.2 nM.
Then `CC(C)[C@H](NS(=O)(=O)c1ccc2c(c1)oc1ccc(C#Cc3cncn3C)cc12)C(=O)O` [Compound 15, (S)-3-methyl-2-(8-((1-methyl-1H-imidazol-5-yl)ethynyl)dibenzo[b,d]furan-3-sulfonamido)butanoic acid], with under 1.5 nM; and `CC(C)[C@H](NS(=O)(=O)c1ccc2c(c1)oc1ccc(-c3nc(Br)cs3)cc12)C(=O)O` [Compound 217, (S)-2-(8-(4-bromothiazol-2-yl)dibenzo[b,d]furan-3-sulfonamido)-3-methylbutanoic acid], with under 1.5 nM; and `CC(C)[C@H](NS(=O)(=O)c1ccc2c(c1)oc1ccc(-c3ccc(C(=O)O)s3)cc12)C(=O)O` [Compound 112, (S)-5-(7-(N-(1-carboxy-2-methylpropyl)sulfamoyl)dibenzo[b,d]furan-2-yl)thiophene-2-carboxylic acid], with 52 nM.
Then `CC(C)[C@@H](NS(=O)(=O)c1ccc2oc3cc(-c4cnn(CCN5CCOCC5)c4)ccc3c2c1)C(=O)O` [Compound 172, (R)-3-methyl-2-(7-(1-(2-morpholinoethyl)-1H-pyrazol-4-yl)dibenzo[b,d]furan-2-sulfonamido)butanoic acid], with 19 nM.
The same measure for `CC(C)[C@@H](NS(=O)(=O)c1ccc2oc3cc(-c4ccco4)ccc3c2c1)C(=O)O` [Compound 98, (R)-2-(7-(furan-2-yl)dibenzo[b,d]furan-2-sulfonamido)-3-methylbutanoic acid]: under 1.5 nM; for `CC(C)[C@H](NS(=O)(=O)c1ccc2c(c1)oc1ccc(-c3noc(-c4ccc(C(F)(F)F)cc4)n3)cc12)C(=O)O` [Compound 271, (S)-3-methyl-2-(8-(5-(4-(trifluoromethyl)phenyl)-1,2,4-oxadiazol-3-yl)dibenzo[b,d]furan-3-sulfonamido)butanoic acid]: 3.7 nM; for `CC(C)[C@@H](NS(=O)(=O)c1ccc2oc3cc(-c4noc(C5CC5)n4)ccc3c2c1)C(=O)O` [Compound 147, (R)-2-(7-(5-cyclopropyl-1,2,4-oxadiazol-3-yl)dibenzo[b,d]furan-2-sulfonamido)-3-methylbutanoic acid]: under 1.5 nM.

The values are drawn from patent publication US20100227859A1, “TRICYCLIC COMPOUNDS AS MATRIX METALLOPROTEINASE INHIBITORS” (priority 2007, published 2010).
